In paper PMC7539012, “Hyperphosphorylated tau aggregation and cytotoxicity modulators screen identified prescription drugs linked to Alzheimer's disease and cognitive functions” (Scientific Reports, 2020):
Structures can show the parent of a compound that is named as a salt. *1 amine or outer side, *2 acyl side, *3 side chain or, on linkers, in order; H or OH if unused. Where a SMILES comes first, the peptide text is derived from it. Bridges are numbered along the chain shown (N, C = ends). [ ]: non-standard residue; d: D form. The star is where a group is joined. X1 = NC1=N[C@@H](O)C[C@H]([C@H](N[*:1])C(=O)[*:2])N1; ΔAla(Z-3-ureido) = NC(=O)N/C=C(\N)C(=O)O; X2 = CCC(C)C(N)C1=NC(C(=O)*)CS1; β3hOrn = NCCC[C@H](N)CC(=O)*; dOrn = NCCC[C@@H](N)C(=O)O; Dap = NC[C@H](N)C(=O)O

test system: T1, 1N4R p-tau; test: p-tau aggregation modulator screen of 1280-compound library (ThS fluorescence net change over 16 h); type: biochemical; set-up: key to PTAI>2SD: *: PTAI>2SD; key to PTAI>3SD: *: PTAI>3SD; conditions: not given;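 for ThS net change: 30 µM compound with 6 µM p-tau over 16 h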
T1 construct: made in house; host or cells: E. coli (PIMAX system)

Structure (SMILES) | ThS net change
CN1[C@@H]2C[C@@H](OC(=O)[C@H](CO)c3ccccc3)C[C@H]1[C@@H]1O[C@@H]12.Cl [Scopolamine hydrochloride] | 389
CCCSc1ccc2nc(NC(=O)OC)[nH]c2c1 [Albendazole] | 324
Brc1c(NC2=NCCN2)ccc2nccnc12.O=C(O)C(O)C(O)C(=O)O [Brimondine L-Tartrate] | 418
COc1ccc2cc([C@@H](C)C(=O)[O-])ccc2c1.[Na+] [(R) -Naproxen sodium salt] | 376
O=C(O)c1cn(C2CC2)c2cc(N3CCNCC3)c(F)cc2c1=O [Ciprofloxacin hydrochloride monohydrate] | 361

same assay, conditions: 1280-compound library screen; ThS fluorescence net change over 16 h

Structure (SMILES) | ThS net change
C[N+](C)(C)CCCCCCCCCC[N+](C)(C)C [Decamethonium bromide] | 390
C=C(CC)C(=O)c1ccc(OCC(=O)O)c(Cl)c1Cl [Ethacrynic acid] | 412
CNCCC=C1c2ccccc2CCc2ccccc21 [Nortriptyline hydrochloride] | 380
CN1CCC(OC(c2ccccc2)c2ccccc2)CC1 [Diphenylpyraline hydrochloride] | 380
C[C@]12CC[C@@H]3c4ccc(O)cc4CC[C@H]3[C@@H]1CC[C@@H]2O [Estradiol-17 beta] | 384
CC(=O)Nc1ccc(OCC(O)CNC(C)C)cc1 (stereo not drawn) [Practolol] | 383
CC(C)(C)NCC(O)COc1cccc2c1CC(O)C(O)C2 (stereo not drawn) [Nadolol] | 411
CNC(=C[N+](=O)[O-])NCCSCc1ccc(CN(C)C)o1 [Ranitidine hydrochloride] | 405
CCCC1O[C@@H]2C[C@H]3[C@@H]4CCC5=CC(=O)C=C[C@]5(C)[C@H]4[C@@H](O)C[C@]3(C)[C@]2(C(=O)CO)O1 (stereo partly drawn) [Budesonide] | 389
CC(Oc1c(Cl)cccc1Cl)C1=NCCN1 (stereo not drawn) [Lofexidine] | 408
Cc1ccc(NC(=O)c2ccc(CN3CCN(C)CC3)cc2)cc1Nc1nccc(-c2cccnc2)n1 [Imatinib] | 409
C#C[C@]1(O)CC[C@H]2[C@@H]3CCC4=CCCC[C@@H]4[C@H]3CC[C@@]21C [Lynestrenol] | 408
NS(=O)(=O)c1cc2c(cc1Cl)N=C(CSCc1ccccc1)NS2(=O)=O [Benzthiazide] | 399
COC(=O)CCc1ccc(OCC(O)CNC(C)C)cc1 (stereo not drawn) [Esmolol hydrochloride] | 400
CC(C)(S)C(N)C(=O)O (racemic) [D,L-Penicillamine] | 385
Cc1nnc(SCC2=C(C(=O)O)N3C(=O)[C@@H](NC(=O)Cn4cnnn4)[C@H]3SC2)s1 [Cefazolin sodium salt] | 381

same assay, conditions: 1280-compound library screen; […]

Structure (SMILES) | ThS net change
C[C@H]1O[C@@H](O[C@H]2[C@@H](O)C[C@H](O[C@H]3[C@@H](O)C[C@H](O[C@H]4CC[C@@]5(C)[C@H](CC[C@@H]6[C@@H]5C[C@@H](O)[C@]5(C)[C@@H](C7=CC(=O)OC7)CC[C@]65O)C4)O[C@@H]3C)O[C@@H]2C)C[C@H](O)[C@@H]1O [Digoxin] | 404
CCC1(CC)C(=O)C=CNC1=O [Pyrithyldione] | 404
C[C@]12CC[C@@H]3c4ccc(OC(=O)N(CCCl)CCCl)cc4CC[C@H]3[C@@H]1CC[C@@H]2O [Estramustine] | 407

same assay, conditions: flag: p-tau aggregation inhibitor, ThS net change more than 2 SD from mean

Structure (SMILES) | PTAI>2SD
CO[C@H]1/C=C/O[C@@]2(C)Oc3c(C)c(O)c4c(O)c(c5c(nc6cc(C)ccn65)c4c3C2=O)NC(=O)/C(C)=C\C=C\[C@H](C)[C@H](O)[C@@H](C)[C@@H](O)[C@@H](C)[C@H](OC(C)=O)[C@@H]1C [Rifaximin] | *
CCCCOc1ccc(CC(=O)NO)cc1 [Bufexamac] | *

same assay, conditions: flag: p-tau aggregation inhibitor, ThS net change more than 3 SD from mean

Structure (SMILES) | PTAI>3SD
C=Cc1c(C)c2cc3nc(cc4[nH]c(cc5nc(cc1[nH]2)C(C)=C5CCC(=O)O)c(CCC(=O)OC)c4C)[C@@]1(C)C3=CC=C(C(=O)OC)C1C(=O)OC (stereo partly drawn) [Verteporfin] | *

same assay, conditions: library screen, ThS fluorescence net change over 16 h with p-tau

Structure (SMILES) | ThS net change
CCN(CC)CCNC(=O)c1cc(Cl)c(N)cc1OC.Cl [Metoclopramide monohydrochloride] | 299
CCC(NC(C)C)C(O)c1ccc(O)c(O)c1.CS(=O)(=O)O (stereo not drawn) [Isoetharine mesylate salt] | 313
CO[C@H]1/C=C/O[C@@]2(C)Oc3c(C)c(O)c4c(O)c(c5c(nc6cc(C)ccn65)c4c3C2=O)NC(=O)/C(C)=C\C=C\[C@H](C)[C@H](O)[C@@H](C)[C@@H](O)[C@@H](C)[C@H](OC(C)=O)[C@@H]1C [Rifaximin] | 112
CCCCCC[C@H]1C(=O)O[C@H](C)[C@H](NC(=O)c2cccc(NC=O)c2O)C(=O)O[C@@H](C)[C@@H]1OC(=O)CC(C)C [Antimycin A] | 211
O=C(Nc1ccc([N+](=O)[O-])cc1Cl)c1cc(Cl)ccc1O [Niclosamide] | 199
CC1=C(CC(=O)O)c2cc(F)ccc2/C1=C\c1ccc([S+](C)[O-])cc1 (stereo not drawn) [Sulindac] | 288
CCCCOc1ccc(CC(=O)NO)cc1 [Bufexamac] | 140
Cc1cccc(N(C)C(=S)Oc2ccc3ccccc3c2)c1 [Tolnaftate] | 219
CC(=O)Oc1cccc2c1C(=O)c1c(OC(C)=O)cc(C(=O)O)cc1C2=O [Diacerein] | 239
C=Cc1c(C)c2cc3nc(cc4[nH]c(cc5nc(cc1[nH]2)C(C)=C5CCC(=O)O)c(CCC(=O)OC)c4C)[C@@]1(C)C3=CC=C(C(=O)OC)C1C(=O)OC (stereo partly drawn) [Verteporfin] | -157

same assay, conditions: p-tau aggregation modulator screen of 1280-compound library; ThS fluorescence net change

Structure (SMILES) | ThS net change
OC(Cn1cncn1)(Cn1cncn1)c1ccc(F)cc1F [Fluconazole] | 374
Nc1nc(=O)c2c([nH]1)NCC(CNc1ccc(C(=O)N[C@@H](CCC(=O)[O-])C(=O)[O-])cc1)N2C=O.[Ca+2] (stereo partly drawn) [Folinic acid calcium salt] | 359
Cc1cc2c(cc1S(N)(=O)=O)S(=O)(=O)CCC2 [Meticrane] | 368
COc1ccccc1OCC(O)CO (stereo not drawn) [Guaifenesin] | 376
O=C(NCC1CCCCN1)c1cc(OCC(F)(F)F)ccc1OCC(F)(F)F (stereo not drawn) [Flecainide acetate] | 354
C=CCc1ccccc1OCC(O)CNC(C)C (stereo not drawn) [Alprenolol hydrochloride] | 376
OC(CCCN1CCCCC1)(c1ccccc1)c1ccccc1 [Diphenidol hydrochloride] | 345
CC1=NS(=O)(=O)c2cc(Cl)ccc2N1 [Diazoxide] | 354
Clc1cccc(Cl)c1N=C1NCCN1 [Clonidine hydrochloride] | 330
CN[C@@H]1[C@H](O)[C@H](NC)[C@H]2O[C@@]3(O)C(=O)C[C@@H](C)O[C@H]3O[C@@H]2[C@H]1O.Cl.Cl [Spectinomycin dihydrochloride] | 361
CN1CCC(=C2c3ccccc3C=Cc3ccccc32)CC1 [Cyproheptadine hydrochloride] | 375
Cc1ccc(/C(=C\CN2CCCC2)c2ccccn2)cc1.Cl [Triprolidine hydrochloride] | 360
CCN1CCCC1CNC(=O)c1cc(S(N)(=O)=O)ccc1OC (stereo not drawn) [Sulpiride] | 373
[H]/N=C(/N)N/C(=N/[H])NCCc1ccccc1 [Phenformin hydrochloride] | 369
CN(C)CCCC1(c2ccc(F)cc2)OCc2cc(C#N)ccc21 (stereo not drawn) [Citalopram Hydrobromide] | 351

same assay, conditions: p-tau aggregation modulator screen of 1280-compound library; […]

Structure (SMILES) | ThS net change
CN1Cc2c(N)cccc2C(c2ccccc2)C1 (stereo not drawn) [Nomifensine maleate] | 340

same assay, conditions: p-tau aggregation modulator screen of the compound library, ThS fluorescence net change

Structure (SMILES) | ThS net change
C[C@@H]1CN([C@H]2CC[C@](C#N)(c3ccc(F)cc3)CC2)CC[C@]1(C(=O)O)c1ccccc1 [Levocabastine hydrochloride] | 416
CCOC(=O)/C=C(C)/C=C/C=C(C)/C=C/c1c(C)cc(OC)c(C)c1C [Etretinate] | 420
Cc1c(O)cccc1C(=O)N[C@@H](CSc1ccccc1)[C@H](O)CN1C[C@H]2CCCC[C@H]2C[C@H]1C(=O)NC(C)(C)C [Nelfinavir mesylate] | 563
CC(=O)Nc1nnc(S(N)(=O)=O)s1 [Acetazolamide] | 429
CC(=O)O[C@]1(C(C)=O)CC[C@H]2[C@@H]3C=C(Cl)C4=CC(=O)[C@@H]5C[C@@H]5[C@]4(C)[C@H]3CC[C@@]21C [Cyproterone acetate] | 432
CC[C@H](C)C(=O)O[C@H]1C[C@H](O)C=C2C=C[C@H](C)[C@H](CC[C@@H](O)C[C@@H](O)CC(=O)O)[C@H]21 [Pravastatin] | 467
Cc1cccc(Nc2ccncc2S(=O)(=O)NC(=O)NC(C)C)c1 [Torsemide] | 455
CCOC(=O)N1CCC(=C2c3ccc(Cl)cc3CCc3cccnc32)CC1 [Loratadine] | 450
Cn1c(=O)c2c(ncn2CC2OCCO2)n(C)c1=O [Doxofylline] | 451
CN1CCN2c3ncccc3Cc3ccccc3C2C1 (stereo not drawn) [Mirtazapine] | 534
NCc1ccc(S(N)(=O)=O)cc1 [Mafenide hydrochloride] | 415
CN(Cc1ccc(C(C)(C)C)cc1)Cc1cccc2ccccc12 [Butenafine Hydrochloride] | 436
CN1CCC(=C2c3ccccc3CCc3sccc32)CC1.O=C(O)CC(O)C(=O)O [Pizotifen malate] | 437
NCCC[C@H](N)CC(=O)N[C@H]1CNC(=O)[C@H]([C@H]2C[C@H](O)N=C(N)N2)NC(=O)/C(=C/NC(N)=O)NC(=O)[C@H](CO)NC(=O)[C@H](CO)NC1=O.O=S(=O)(O)O [Viomycin sulfate] (β3hOrn-[Dap]SS[ΔAla(Z-3-ureido)][X1]; lactam 1-C) | 453
N=C(N)NC(=O)Cc1c(Cl)cccc1Cl [Guanfacine hydrochloride] | 417
Cl.NCC(O)c1ccc(O)cc1 (racemic) [(+,-)-Octopamine hydrochloride] | 413
Cc1ccnc(NS(=O)(=O)c2ccc(N)cc2)n1 [Sulfamerazine] | 421
CCC(C)C(N)C1=NC(C(=O)N[C@@H](CC(C)C)C(=O)N[C@H](CCC(=O)O)C(=O)N[C@H](C(=O)N[C@H]2CCCCNC(=O)[C@H](CC(N)=O)NC(=O)[C@@H](CC(=O)O)NC(=O)[C@H](Cc3cnc[nH]3)NC(=O)[C@@H](Cc3ccccc3)NC(=O)[C@H]([C@@H](C)CC)NC(=O)[C@@H](CCCN)NC2=O)[C@@H](C)CC)CS1 (stereo partly drawn) [Bacitracin] (X2-L[dE]IK[dOrn]I[dF]H[dD]N; lactam 4-C) | 479
CN1C(=O)CC(c2ccccc2)C1=O (stereo not drawn) [Phensuximide] | 453
